According to patent US20260085315A1, “POLYNUCLEOTIDE COMPOSITIONS AND METHODS FOR TREATMENT OF CANCER” (APTAH BIO, INC., priority 2023, published 2026):
Entries after “also recorded” stand apart in the source; their conditions may differ. d = 2'-deoxy (DNA); m = 2'-O-methyl

Assays:
MCF-7 cell line = assay: MTT cytotoxicity assay on human cancer cell panel (Example 2); format: cell-based; conditions: 24, 48, 72, 96 hours; 0.03-30 μM; 0.1% FBS
Method: (§1) Cell lines were maintained in growth medium with 10% of Fetal Bovine Serum (FBS) until the time of the experiments. Cells were sub-cultured by trypsinization and splitting the cell suspension into fresh flasks and supplementing with fresh culture medium. To perform the assay, the cells were trypsinized, neutralized with complete medium (10% FBS), centrifuged, counted with assistance of a hemocytometer, and plated with the respective media with 10% FBS. Cell lines were plated at a density of 1×10^4 cells per well, other than the SH-SY5Y cell line which was plated at a density of 2.5×10^4. The preparation of the different experimental groups was done with 0.1% FBS (U87MG, MCF-7, SH-SY5Y and 786-O) and 1% FBS (PC-3). The untreated cells were used as negative control (medium only). After 24, 48, 72 and 96 hours of incubation, the effect of ASMO1 and controls on cytotoxicity of cells was determined by MTT assay.
(§2) Briefly, plates were taken out and 20 μl of 5 mg/ml of MTT 3-(4,5-dimethythiazol-2-yl)-2,5-diphenyl tetrazolium bromide solution was added to all the wells. Cells were incubated for 3 h at 37° C. After this period, supernatant was aspirated and 100 μl of DMSO was added to each well to dissolve formazan crystals. The absorbance of each well was then read at 540 nm using Synergy HT microplate reader.
(§3) Cells were plated and treated with 7 different concentrations (0.03, 0.1, 0.3, 1, 3, 10 and 30 μM) of APT20TTMG with medium (0.1% FBS). MTT assay was performed in 4 distinct times and graphs are represented as absorbance (540 nm). (A) 24 hours of incubation. (B) 48 hours of incubation. (C) 72 hours of incubation. (D) 96 hours of incubation.

U-87MG cell line = assay: as above; format: cell-based; conditions: 0.03-30 μM, 0.1% FBS
Method: as §1, §2, §3

786-O line = assay: as above; format: cell-based; conditions: 0.03-30 μM, 0.1% FBS
Method: as §1
Briefly, plates were taken out and 20 μl of 5 mg/ml of MTT 3-(4,5-dimethythiazol-2-yl)-2,5-diphenyl tetrazolium bromide solution was added to all the wells. […] The absorbance of each well was then read at 540 nm using Synergy HT microplate reader.
Cells were plated and treated with 7 different concentrations (0.03, 0.1, 0.3, 1, 3, 10 and 30 μM) of APT20TTMG with medium (0.1% FBS). MTT assay was performed in 3 distinct times and graphs are represented as absorbance (540 nm). […]

SH-SY5Y cell line = assay: Mitochondrial membrane potential; format: cell-based, Human; conditions: all treatments vs non-treated cells
[1] = system: Human Glioblastoma Cancer (U-87MG) xenograft; assay: Human glioblastoma xenograft tumor growth; format: in vivo, athymic nude mice; conditions: for tumor reduction in relation to the negative control: APT20TTMG 20 mg/kg i.v. q3d, TMZ 5 mg/kg p.o. daily
Method: Subcutaneous inoculation of the tumorigenic Human Glioblastoma Cancer Cell line (U-87MG) results in the formation of solid tumor in athymic nude mice. Under pathogen free conditions, the tumor retains its own characteristics and grows using the growth factors supplied by the host animal. The ability of administered ASMO1 to inhibit the growth of tumor can be a valuable tool to evaluate its efficacy as an anti-tumor agent. Measurement of tumor size at defined intervals of time generates data that can be used to calculate various end point parameters derived from tumor and understand the potency of the test compounds.
Human glioblastoma cancer cells (U-87MG) were cultured and expanded in EMEM (Eagle's Minimum Essential Medium) supplemented with 10% Fetal Bovine Serum (FBS) at 37° C. and 5% CO2. The cells growing at log phase were harvested by trypsinization and centrifuged for 3 minutes at 800 rpm to form a pellet. The pellet was further washed with PBS. Cell suspension stock was prepared to obtain the required cell count. Before cell inoculation, cell viability was determined using trypan blue. 25 μL of cell suspension was stained with 25 μL of trypan blue and viable cells were counted using Neubauer's chamber. Cell number was adjusted by adding serum free media to achieve desired concentration, i.e., 10×10^7/mL.
Cells were diluted such that the concentration of the cells was 10 million cells/100 μL of serum free medium. Overnight thawed Matrigel and cells with medium were mixed 1:1 and a total volume of 200 μL was injected subcutaneously to the donor animals (n=5) at flank region.
Donor animals were monitored for solid tumor growth for at least 3-4 weeks. Tumor size was measured using digital caliper (MITUTOYO, Japan, CP-15Mx) and volume was calculated by using the formula: (L*W2)/2. Once the tumor reached required size ˜500 mm^3, the donor animals were humanely sacrificed, the tumor was harvested and fragmented into ˜30 mg size and implanted subcutaneously to experimental animals (n=50) using the device. All the animals was monitored alternate day for tumor growth/size.
Once the tumor size reached ˜100 mm^3, animals were selected and randomized by stratification method using tumor size into three groups (G1-G3). Treatment for G1-G3 was initiated at this stage. Each group was comprised of 8 animals.
• G1 was served as vehicle control group and treated with normal saline at the dose of 5 mL/kg, daily, intravenously for 3 weeks. • G2 was served as Reference Item treated group and treated with TMZ at the dose of 5 mg/kg, p.o., daily for 3 weeks. • G3 was treated with APT20TTMG at the dose of 20 mg/kg, intravenously, every third day (q3d) for 3 weeks.
Body weight and tumor size were measured weekly twice using digital caliper. At termination, blood was collected through retro-orbital route. Serum/plasma was separated and stored at deep freezer (−20° C.). Post blood collection, animals were humanely sacrificed by CO2 asphyxiation as per latest guidelines issued by CPCSEA. All the vital organ (brain, kidney, liver, lungs, heart) and tumor were dissected out. Vital organs were fixed in 10% NBF and stored. Tumor tissue was dissected out, weighed and portion of tumor tissue was fixed in 10% NBF and another portion is snap frozen and stored at deep freezer (−80° C.).
As shown in FIG. 34A-C, tumor fragments from the U-87MG cell line were implanted in the animals and once the tumor size reached ˜100 mm^3 animals were randomized into 3 experimental groups (G1, G2, and G3). G1: Vehicle, (G2) Reference Item Temozolomide, and (G3) APT20TTMG for a total of 22 days. (A) The tumor volume of the animals was measured twice/a week. (B) Animals were weighed throughout the experiment and the change in weight gain compared to pre-treatment weight was plotted. (C) After the euthanasia of the animals, the tumors were removed and weighed.

Substance: APT20TTMG: engineered polynucleotide ASMO1, 24 nt, SEQ ID NO: 3 gtccactaacctttcaggccagcg; targeting moieties 5′-GTCCA-3′ and 5′-CG-3′, U1 snRNP recruiting moiety (GTCCACTAACCTTTCAGGCCAGCG; sugars from the 5' end m5 d14 m5, all phosphorothioate, methylation of C and T or U not given here)
- cytotoxic or cytostatic effect (MTT) (MCF-7 cell line): does not exert a cytotoxic or cytostatic effect
- cell viability (MTT, absorbance 540 nm) (U-87MG cell line; 72 and 96 hours): like those of the vehicle group
- cell viability (MTT, absorbance 540 nm) (U-87MG cell line; 24 hours, vs negative control and vehicle): trend of reduction in cell viability
- cell viability (MTT, absorbance 540 nm) (U-87MG cell line; 48 hours): reduction in absorbance values
- cell viability (MTT) (786-O line; 48 and 72 hours): no difference when compared to the control (vehicle group), only in the highest concentration (30 μM)
- cell viability (MTT) (786-O line; 24 hours): can alter cell viability
- mitochondrial membrane potential (SH-SY5Y cell line): no change in mitochondrial membrane potential
- tumor growth (tumor volume) vs vehicle group ([1]; APT20TTMG 20 mg/kg i.v. every third day 3 weeks, TMZ 5 mg/kg p.o. daily 3 weeks): inhibit tumor growth from day 16
- final tumor weight ([1]; between APT20TTMG, TMZ and vehicle groups, after euthanasia): no statistical difference
- tumor reduction in relation to the negative control ([1]; day 20): 46.7±10.7%
- tumor reduction in relation to the negative control ([1]; day 22): 42±13.2%
- Volume (tumor) ([1]; individual animals, G3 APT20TTMG, G2 TMZ): Volume 321.5; also recorded: Volume 768.1; also recorded: Volume 796.8; also recorded: Volume 62.3; also recorded: Volume 1441.5; also recorded: Volume 953.5
